Results on three compounds are retold here after PMC5115768, “Crystal Structure and Pyridoxal 5-Phosphate Binding Property of Lysine Decarboxylase from Selenomonas ruminantium” (PLoS ONE, 2016).

The Kd is the constant that tells how readily two partners part at equilibrium. The stoichiometry N is a count of units in the complex or per binding partner.

Assay [1] addresses T1, SrLDC (lysine decarboxylase from Selenomonas ruminantium) (Pseudoselenomonas ruminantium, UniProt O50657).
T1 construct: gene ldc; residues 1-399 as printed (count probably includes the C-terminal 6xHis; sheet domain ends at Val393); pET-22b(+), C-terminal 6xHis kept; E. coli BL21(DE3)-T1R
Kind of assay: isothermal titration calorimetry, independent binding model.

Assay [2] has as its target T1, SrLDC (lysine decarboxylase from Selenomonas ruminantium). Nature of the assay: X-ray crystal structure, […] Å. The assay is classed as binding. The following applies: PLP-complexed crystal soaked with 10 mM L-lysine for 30 min; cadaverine observed instead; pH 4.2; active site at dimer interface.
Assay [3] deals with Lysine decarboxylase from Selenomonas ruminantium (Selenomonas ruminantium). Nature of the assay: crystal structure; three crystal forms: apo I (P43212, one molecule per asymmetric unit, dimer generated by crystallographic symmetry), apo II (C2, a dimer in the asymmetric unit), PLP/cadaverine complex (P6322, one molecule per asymmetric unit); hanging-drop vapor diffusion at 20°C; protein in 40 mM Tris-HCl, pH 8.0.

T1 sequence (O50657 whole entry, the tested form may be a part): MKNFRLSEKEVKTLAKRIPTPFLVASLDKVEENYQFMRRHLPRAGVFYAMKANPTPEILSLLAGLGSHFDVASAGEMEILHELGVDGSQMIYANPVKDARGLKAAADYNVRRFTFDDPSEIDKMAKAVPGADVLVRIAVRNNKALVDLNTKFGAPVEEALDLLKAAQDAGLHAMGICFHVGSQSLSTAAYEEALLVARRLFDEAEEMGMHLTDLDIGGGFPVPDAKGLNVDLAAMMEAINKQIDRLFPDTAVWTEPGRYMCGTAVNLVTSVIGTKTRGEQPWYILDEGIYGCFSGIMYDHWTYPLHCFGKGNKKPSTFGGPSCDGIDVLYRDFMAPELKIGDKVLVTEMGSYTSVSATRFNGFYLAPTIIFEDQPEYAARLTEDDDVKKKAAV

For `Cc1ncc(COP(=O)(O)O)c(C=O)c1O` [PLP], binding in assay [1] was characterised by a dissociation constant (Kd) of 72 µM.

With `NCCCCCN` [cadaverine], the “X-ray crystal structure, 2.5 Å” value in assay [2] is “soaked the crystals of SrLDC complexed with PLP in L-lysine, a cadaverine molecule was observed”.

“Lysine decarboxylase from Selenomonas ruminantium (enzyme)” yielded a stoichiometry N in assay [3] of 2.
